{"source": "paper PMC6090053", "about": "“Substrate Specificity of Acyltransferase Domains for Efficient Transfer of Acyl Groups” (Frontiers in Microbiology, 2018)", "key": {"[1]": {"biological_target": "T1, AT5monAIV of monensin PKS (Streptomyces virginiae, UniProt Q846X3)", "T1 construct": "gene monAIV; excised AT domain of module 5, synthetic gene, E. coli BL21(DE3), Ni-NTA", "T1 sequence (Q846X3 entry or part of it)": "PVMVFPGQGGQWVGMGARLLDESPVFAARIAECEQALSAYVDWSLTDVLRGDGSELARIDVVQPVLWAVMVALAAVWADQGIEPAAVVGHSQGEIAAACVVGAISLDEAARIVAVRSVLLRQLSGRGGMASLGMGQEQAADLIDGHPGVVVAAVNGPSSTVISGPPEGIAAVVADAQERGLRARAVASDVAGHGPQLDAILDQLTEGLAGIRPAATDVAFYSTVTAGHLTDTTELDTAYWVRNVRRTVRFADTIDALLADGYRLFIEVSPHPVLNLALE", "assay": "trans-acylation of holo-ACP10FkbA, HPLC-MS", "type": "biochemical", "conditions": "16 uM acyl-CoA, 16 uM holo-ACP10FkbA, 1.6 uM AT, pH 8.0, 25 C, 2 h", "description": "trans-acylation of holo-ACP10FkbA, HPLC-MS on AT5monAIV of monensin PKS"}, "[2]": {"biological_target": "T1, AT5monAIV of monensin PKS", "assay": "self-acylation, HPLC-MS of intact protein", "type": "biochemical", "conditions": "200 uM acyl-CoA, 20 uM AT, pH 8.0, 25 C, 1 h; covalent acyl-enzyme", "description": "(§1) self-acylation, HPLC-MS of intact protein on AT5monAIV of monensin PKS"}, "AT4FkbB of FK520 PKS [3]": {"biological_target": "T2, AT4FkbB of FK520 PKS (Streptomyces hygroscopicus, UniProt Q9KIE0)", "T2 construct": "gene fkbB; excised AT domain of module 4 of FkbB, synthetic gene, E. coli BL21(DE3), Ni-NTA", "T2 sequence (Q9KIE0 entry or part of it)": "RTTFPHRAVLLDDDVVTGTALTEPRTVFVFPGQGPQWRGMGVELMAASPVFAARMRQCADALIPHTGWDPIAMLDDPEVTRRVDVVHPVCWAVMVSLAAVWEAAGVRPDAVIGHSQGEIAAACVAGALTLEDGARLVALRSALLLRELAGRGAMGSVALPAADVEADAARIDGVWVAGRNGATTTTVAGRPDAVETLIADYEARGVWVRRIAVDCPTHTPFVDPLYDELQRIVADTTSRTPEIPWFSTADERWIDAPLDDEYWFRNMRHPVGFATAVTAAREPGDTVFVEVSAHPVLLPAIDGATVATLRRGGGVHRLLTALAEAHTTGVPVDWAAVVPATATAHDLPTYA", "assay": "self-acylation, HPLC-MS of intact protein", "type": "biochemical", "conditions": "200 uM acyl-CoA, 20 uM AT, pH 8.0, 25 C, 1 h; covalent acyl-enzyme", "description": "(§2) self-acylation, HPLC-MS of intact protein on AT4FkbB of FK520 PKS"}, "AT4FkbB of FK520 PKS [4]": {"biological_target": "T2, AT4FkbB of FK520 PKS", "assay": "self-acylation, HPLC-MS of intact protein", "type": "biochemical", "conditions": "200 uM acyl-CoA, 20 uM AT, pH 8.0, 25 C, 1 h; covalent acyl-enzyme", "description": "as §2", "remark": "listed apart in the source"}, "[5]": {"biological_target": "T3, AT3lsd12 of lasalocid PKS (Streptomyces lasalocidi, UniProt B6ZK65)", "T3 construct": "gene lsd12; excised AT domain of module 3, synthetic gene, E. coli BL21(DE3), Ni-NTA", "T3 sequence (B6ZK65 entry or part of it)": "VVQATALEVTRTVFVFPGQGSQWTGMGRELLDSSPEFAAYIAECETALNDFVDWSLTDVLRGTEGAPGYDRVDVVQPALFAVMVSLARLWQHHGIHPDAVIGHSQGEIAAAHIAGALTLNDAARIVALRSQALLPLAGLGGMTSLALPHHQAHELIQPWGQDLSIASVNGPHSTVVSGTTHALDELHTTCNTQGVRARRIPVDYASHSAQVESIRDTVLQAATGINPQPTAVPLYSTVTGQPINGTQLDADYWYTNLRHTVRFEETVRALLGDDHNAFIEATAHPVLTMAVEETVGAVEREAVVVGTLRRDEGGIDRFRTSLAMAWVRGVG", "assay": "self-acylation, HPLC-MS of intact protein", "type": "biochemical", "conditions": "200 uM acyl-CoA, 20 uM AT, pH 8.0, 25 C, 1 h; covalent acyl-enzyme", "description": "(§3) self-acylation, HPLC-MS of intact protein on AT3lsd12 of lasalocid PKS"}, "[6]": {"biological_target": "T3, AT3lsd12 of lasalocid PKS", "assay": "self-acylation, HPLC-MS of intact protein", "type": "biochemical", "conditions": "200 uM acyl-CoA, 20 uM AT, pH 8.0, 25 C, 1 h; covalent acyl-enzyme", "description": "as §3", "remark": "listed apart in the source"}, "AT4FkbB of FK520 PKS [7]": {"biological_target": "T2, AT4FkbB of FK520 PKS", "assay": "self-acylation, HPLC-MS of intact protein", "type": "biochemical", "conditions": "200 uM acyl-CoA, 20 uM AT, pH 8.0, 25 C, 1 h; covalent acyl-enzyme", "description": "as §2", "remark": "listed apart in the source"}, "AT4FkbB of FK506 PKS [8]": {"biological_target": "T4, AT4FkbB of FK506 PKS (Streptomyces tsukubensis, UniProt W8RMH0)", "T4 construct": "gene fkbB; excised AT domain of module 4 of FkbB, E. coli BL21(DE3), Ni-NTA", "T4 sequence (W8RMH0 entry or part of it)": "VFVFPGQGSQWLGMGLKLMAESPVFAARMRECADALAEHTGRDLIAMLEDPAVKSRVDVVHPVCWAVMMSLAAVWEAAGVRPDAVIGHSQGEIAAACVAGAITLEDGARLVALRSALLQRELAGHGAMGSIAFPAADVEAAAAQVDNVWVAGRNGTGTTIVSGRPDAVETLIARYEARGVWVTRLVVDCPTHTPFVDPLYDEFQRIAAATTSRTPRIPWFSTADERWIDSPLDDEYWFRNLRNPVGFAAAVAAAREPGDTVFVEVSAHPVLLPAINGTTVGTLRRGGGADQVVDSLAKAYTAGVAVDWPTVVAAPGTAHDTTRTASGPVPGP", "assay": "self-acylation, HPLC-MS of intact protein", "type": "biochemical", "conditions": "200 uM acyl-CoA, 20 uM AT, pH 8.0, 25 C, 1 h; covalent acyl-enzyme at Ser89", "description": "(§4) self-acylation, HPLC-MS of intact protein on AT4FkbB of FK506 PKS"}, "AT4FkbB of FK506 PKS [9]": {"biological_target": "T5, AT4FkbB of FK506 PKS (Streptomyces tsukubensis, UniProt W8RMH0, L6753I/V6754D/V6755T)", "T5 construct": "gene fkbB; excised AT domain of module 4 of FkbB, E. coli BL21(DE3), Ni-NTA", "T5 sequence (W8RMH0 entry or part of it L6753I/V6754D/V6755T)": "as the sequence (W8RMH0 entry or part of it) above, with L185I, V186D, V187T counted along it", "assay": "self-acylation, HPLC-MS of intact protein", "type": "biochemical", "conditions": "200 uM acyl-CoA, 20 uM AT, pH 8.0, 25 C, 1 h; covalent acyl-enzyme", "description": "as §4"}, "AT4FkbB of FK506 PKS [10]": {"biological_target": "T6, AT4FkbB of FK506 PKS (Streptomyces tsukubensis, UniProt W8RMH0, Q6687A)", "T6 construct": "gene fkbB; excised AT domain of module 4 of FkbB, E. coli BL21(DE3), Ni-NTA", "T6 sequence (W8RMH0 entry or part of it Q6687A)": "as the sequence (W8RMH0 entry or part of it) above, with Q119A counted along it", "assay": "self-acylation, HPLC-MS of intact protein", "type": "biochemical", "conditions": "200 uM acyl-CoA, 20 uM AT, pH 8.0, 25 C, 1 h; covalent acyl-enzyme", "description": "as §4"}, "AT4FkbB of FK506 PKS [11]": {"biological_target": "T7, AT4FkbB of FK506 PKS (Streptomyces tsukubensis, UniProt W8RMH0, Q6687A/L6753I/V6754D/V6755T/F6771L)", "T7 construct": "gene fkbB; excised AT domain of module 4 of FkbB, E. coli BL21(DE3), Ni-NTA", "T7 sequence (W8RMH0 entry or part of it Q6687A/L6753I/V6754D/V6755T/F6771L)": "as the sequence (W8RMH0 entry or part of it) above, with Q119A, L185I, V186D, V187T, F203L counted along it", "assay": "self-acylation, HPLC-MS of intact protein", "type": "biochemical", "conditions": "200 uM acyl-CoA, 20 uM AT, pH 8.0, 25 C, 1 h; covalent acyl-enzyme", "description": "as §4"}, "AT4FkbB of FK506 PKS [12]": {"biological_target": "T8, AT4FkbB of FK506 PKS (Streptomyces tsukubensis, UniProt W8RMH0, V6755K)", "T8 construct": "gene fkbB; excised AT domain of module 4 of FkbB, E. coli BL21(DE3), Ni-NTA", "T8 sequence (W8RMH0 entry or part of it V6755K)": "as the sequence (W8RMH0 entry or part of it) above, with V187K counted along it", "assay": "self-acylation, HPLC-MS of intact protein", "type": "biochemical", "conditions": "200 uM acyl-CoA, 20 uM AT, pH 8.0, 25 C, 1 h; covalent acyl-enzyme", "description": "as §4"}, "[13]": {"assay": "self-acylation, HPLC-MS of intact protein", "type": "biochemical, Streptomyces virginiae", "conditions": "200 uM acyl-CoA, 20 uM AT, pH 8.0, 25 C, 1 h; covalent acyl-enzyme", "description": "as §1"}}}
{"smiles": "CC(C(=O)O)C(=O)SCCNC(=O)CCNC(=O)[C@H](O)C(C)(C)COP(=O)(O)OP(=O)(O)OC[C@H]1O[C@@H](n2cnc3c(N)ncnc32)[C@H](O)[C@@H]1OP(=O)(O)O", "note": "(some centres unmarked) [MM-CoA]", "values": [{"measurement": "Trans-acylation reaction (%) / MM-ACP10FkbA", "setting": "[1]", "result": 51.2, "unit": "%"}]}
{"smiles": "C=CCC(C(=O)O)C(=O)SCCNC(=O)CCNC(=O)[C@H](O)C(C)(C)COP(=O)(O)OP(=O)(O)OC[C@H]1O[C@@H](n2cnc3c(N)ncnc32)[C@H](O)[C@@H]1OP(=O)(O)O", "note": "(some centres unmarked) [allmal-CoA]", "values": [{"measurement": "Self-acylation reaction (%) / Allmal-AT4FkbB^∗", "setting": "[2]", "result": 49.8, "unit": "%"}, {"measurement": "Self-acylation reaction (%) / Allmal-AT4FkbB^∗", "setting": "AT4FkbB of FK520 PKS [3]", "result": 31.5, "unit": "%"}, {"measurement": "Self-acylation reaction (%) / Allmal-AT4FkbB^∗", "setting": "AT4FkbB of FK520 PKS [4]", "result": 61.3, "unit": "%"}, {"measurement": "Self-acylation reaction (%) / Allmal-AT4FkbB^∗", "setting": "[5]", "result": 41.4, "unit": "%"}, {"measurement": "Self-acylation reaction (%) / Allmal-AT4FkbB^∗", "setting": "[6]", "result": 17.8, "unit": "%"}, {"measurement": "Self-acylation reaction (%) / Allmal-AT4FkbB^∗", "setting": "AT4FkbB of FK520 PKS [7]", "result": 58.2, "unit": "%"}, {"measurement": "Self-acylation reaction (%) / Allmal-AT4^∗FkbB", "setting": "AT4FkbB of FK506 PKS [8]", "result": 69.7, "unit": "%"}, {"measurement": "Self-acylation reaction (%) / Allmal-AT4^∗FkbB", "setting": "AT4FkbB of FK506 PKS [9]", "result": 28.0, "unit": "%"}, {"measurement": "Self-acylation reaction (%) / Allmal-AT4^∗FkbB", "setting": "AT4FkbB of FK506 PKS [10]", "result": 29.2, "unit": "%"}, {"measurement": "Self-acylation reaction (%) / Allmal-AT4^∗FkbB", "setting": "AT4FkbB of FK506 PKS [11]", "result": 27.1, "unit": "%"}, {"measurement": "Self-acylation reaction (%) / Allmal-AT4^∗FkbB", "setting": "AT4FkbB of FK506 PKS [12]", "result": 78.8, "unit": "%"}]}
{"smiles": "CCC(C(=O)O)C(=O)SCCNC(=O)CCNC(=O)[C@H](O)C(C)(C)COP(=O)(O)OP(=O)(O)OC[C@H]1O[C@@H](n2cnc3c(N)ncnc32)[C@H](O)[C@@H]1OP(=O)(O)O", "note": "(some centres unmarked) [ethmal-CoA]", "values": [{"measurement": "Self-acylation reaction (%) / Ethmal-AT4FkbB^∗", "setting": "[13]", "result": 63.7, "unit": "%"}, {"measurement": "Self-acylation reaction (%) / Ethmal-AT4FkbB^∗", "setting": "AT4FkbB of FK520 PKS [3]", "result": 65.1, "unit": "%"}, {"measurement": "Self-acylation reaction (%) / Ethmal-AT4FkbB^∗", "setting": "[6]", "result": 78.1, "unit": "%"}, {"measurement": "Self-acylation reaction (%) / Ethmal-AT4^∗FkbB", "setting": "AT4FkbB of FK506 PKS [8]", "result": 62.0, "unit": "%"}, {"measurement": "Self-acylation reaction (%) / Ethmal-AT4^∗FkbB", "setting": "AT4FkbB of FK506 PKS [12]", "result": 32.3, "unit": "%"}]}
